8 molecules from US7825118B2, “Inhibitors of bruton's tyrosine kinase” (Pharmacyclics, Inc., priority 2006, dated 2010) can be followed below.

What is called IC50 is the concentration that inhibits the measured activity by half. What is called GI50 is the concentration at which growth is held to half of that of the control.

Like-named read-outs stand apart in the source and are kept apart here.

For one experiment, the target named is Btk (Homo sapiens, UniProt Q06187). Briefly: Btk acellular kinase assay (TR-FRET). Format: biochemical.
The test system of another experiment is DHL-6 cells. Briefly: Growth of DHL-6 cells (Alamar Blue, FIG. 3). Format: cell-based. The settings on record: 3E4 cells/well, complete media, 0.1% DMSO. On the technique in general: Alamar Blue is a resazurin reagent that responds to reducing activity.
The next experiment deals with JAK3 (Homo sapiens, UniProt P52333). Briefly: Panel of kinases: JAK3. The settings on record: Cys: Y. Format: biochemical.
In a further experiment the target is BLK (Homo sapiens, UniProt P51451). Briefly: Panel of kinases: BLK. Format: biochemical. The settings on record: Cys: Y.
A further experiment deals with ITK (Homo sapiens, UniProt Q08881). Briefly: Panel of kinases: ITK. Format: biochemical. The conditions noted are these: Cys: Y.
In the next experiment the test system is DHL-6. The experiment is described as follows: Cytotoxicity DHL-6. Format: cell-based. The settings on record: Lymphoma.
The test system of the next experiment is DOHH2. The experiment is described as follows: Cytotoxicity DOHH2. Format: cell-based. The conditions noted are these: for GI50: Homo sapiens, DOHH-2, Lymphoma.
Another experiment relates to DLCL2. Briefly: Cytotoxicity DLCL2. Format: cell-based. The settings on record: Lymphoma.
The test system of the next experiment is Mino. The experiment is described as follows: Cytotoxicity Mino. Format: cell-based. The settings on record: Homo sapiens, Lymphoma.
In another experiment the test system is Raji. Briefly: Cytotoxicity Raji. Format: cell-based. The settings on record: Homo sapiens, Lymphoma.
Another experiment relates to CRL-8062. The experiment is described as follows: Cytotoxicity CRL-8062. Format: cell-based. The conditions noted are these: Myeloma.
The subject of the next experiment is A549. The experiment is described as follows: Cytotoxicity A549. Format: cell-based. The settings on record: Homo sapiens, Lung.
The next experiment deals with NCI-H460. Briefly: Cytotoxicity NCI-H460. The settings on record: Homo sapiens, Lung. Format: cell-based.
Another experiment concerns BT-549. Briefly: Cytotoxicity BT-549. The settings on record: Homo sapiens, Breast. Format: cell-based.
For another experiment, the system named is SK-BR3. The experiment is described as follows: Cytotoxicity SK-BR3. Format: cell-based. The settings on record: Homo sapiens, SK-BR-3; Breast.
Another experiment relates to MDA-MB-361. The experiment is described as follows: Cytotoxicity MDA-MB-361. The conditions noted are these: Homo sapiens, Breast. Format: cell-based.
The next experiment relates to MDA-MB-468. Briefly: Cytotoxicity MDA-MB-468. Format: cell-based. The conditions noted are these: Homo sapiens, Breast.
The test system of the next experiment is MDA-MB-231. The experiment is described as follows: Cytotoxicity MDA-MB-231. Format: cell-based. The conditions noted are these: Homo sapiens, Breast.
The test system of the next experiment is MDA-MB-453. Briefly: Cytotoxicity MDA-MB-453. Format: cell-based. The conditions noted are these: Homo sapiens, Breast.
In a further experiment the test system is pERK in DOHH2 cells. The experiment is described as follows: Basal pERK levels in unstimulated DOHH2 cells. Format: cell-based. The conditions noted are these: Homo sapiens, DOHH-2, read-out: decrease of pERK levels IC50. From the text:
(§1) To identify biomarkers that correlate with response to Compound 4, phosphorylation events in the BCR signal transduction pathway were investigated. […].
. However, when we examined basal phosphorylation levels, we found higher basal phosphorylation in DOHH2 compared to Ramos, with phospho-ERK in particular indicating higher levels of basal or tonic signaling in DOHH2. […]

Experiment [1] concerns Btk expressing B cell lymphoma cell lines. The experiment is described as follows: Panel of nine Btk expressing B cell lymphoma cell lines. Format: cell-based.
Another experiment concerns Egr-1. The experiment is described as follows: Expression of ERK transcriptional target Egr-1. Format: cell-based. The settings on record: 1 uM.
The next experiment relates to Ramos. The experiment is described as follows: Sensitivity of Ramos cell line. Format: cell-based, human.
Source text: as §1

The mark [2] stands for this setting: acellular TR-FRET kinase assay, ATP at Km, read-out: Btk IC50.

Sequence of Btk (Q06187 whole entry): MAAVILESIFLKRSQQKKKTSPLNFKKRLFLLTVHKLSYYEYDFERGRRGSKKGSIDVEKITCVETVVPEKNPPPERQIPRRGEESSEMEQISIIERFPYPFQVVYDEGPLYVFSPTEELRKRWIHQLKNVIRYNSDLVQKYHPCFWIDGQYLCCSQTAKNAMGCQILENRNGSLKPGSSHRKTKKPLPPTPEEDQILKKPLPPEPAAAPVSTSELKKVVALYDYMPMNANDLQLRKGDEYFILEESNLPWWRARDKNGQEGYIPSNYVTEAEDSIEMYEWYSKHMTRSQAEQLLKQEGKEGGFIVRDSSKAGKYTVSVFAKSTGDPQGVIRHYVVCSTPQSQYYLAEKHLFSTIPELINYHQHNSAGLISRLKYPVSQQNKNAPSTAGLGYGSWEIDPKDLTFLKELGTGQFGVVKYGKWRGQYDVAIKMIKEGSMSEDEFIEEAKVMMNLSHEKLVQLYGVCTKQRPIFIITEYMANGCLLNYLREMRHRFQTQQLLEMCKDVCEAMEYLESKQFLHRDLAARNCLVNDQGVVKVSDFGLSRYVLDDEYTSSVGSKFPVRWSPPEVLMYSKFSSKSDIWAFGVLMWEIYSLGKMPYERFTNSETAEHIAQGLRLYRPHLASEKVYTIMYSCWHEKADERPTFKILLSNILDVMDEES
Sequence of BLK (P51451 whole entry): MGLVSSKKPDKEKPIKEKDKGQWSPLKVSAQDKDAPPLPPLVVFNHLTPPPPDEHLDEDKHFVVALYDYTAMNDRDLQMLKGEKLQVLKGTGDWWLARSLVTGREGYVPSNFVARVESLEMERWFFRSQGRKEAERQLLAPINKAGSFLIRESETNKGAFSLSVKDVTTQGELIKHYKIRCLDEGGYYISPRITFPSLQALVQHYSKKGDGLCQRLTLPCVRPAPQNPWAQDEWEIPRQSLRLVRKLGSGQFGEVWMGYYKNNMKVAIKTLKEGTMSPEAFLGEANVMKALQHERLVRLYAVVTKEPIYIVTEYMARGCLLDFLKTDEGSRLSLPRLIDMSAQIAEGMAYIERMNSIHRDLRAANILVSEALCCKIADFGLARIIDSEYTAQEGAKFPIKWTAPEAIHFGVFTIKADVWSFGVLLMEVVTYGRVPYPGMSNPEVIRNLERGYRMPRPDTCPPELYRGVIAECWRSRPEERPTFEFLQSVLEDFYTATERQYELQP
Sequence of JAK3 (P52333 whole entry): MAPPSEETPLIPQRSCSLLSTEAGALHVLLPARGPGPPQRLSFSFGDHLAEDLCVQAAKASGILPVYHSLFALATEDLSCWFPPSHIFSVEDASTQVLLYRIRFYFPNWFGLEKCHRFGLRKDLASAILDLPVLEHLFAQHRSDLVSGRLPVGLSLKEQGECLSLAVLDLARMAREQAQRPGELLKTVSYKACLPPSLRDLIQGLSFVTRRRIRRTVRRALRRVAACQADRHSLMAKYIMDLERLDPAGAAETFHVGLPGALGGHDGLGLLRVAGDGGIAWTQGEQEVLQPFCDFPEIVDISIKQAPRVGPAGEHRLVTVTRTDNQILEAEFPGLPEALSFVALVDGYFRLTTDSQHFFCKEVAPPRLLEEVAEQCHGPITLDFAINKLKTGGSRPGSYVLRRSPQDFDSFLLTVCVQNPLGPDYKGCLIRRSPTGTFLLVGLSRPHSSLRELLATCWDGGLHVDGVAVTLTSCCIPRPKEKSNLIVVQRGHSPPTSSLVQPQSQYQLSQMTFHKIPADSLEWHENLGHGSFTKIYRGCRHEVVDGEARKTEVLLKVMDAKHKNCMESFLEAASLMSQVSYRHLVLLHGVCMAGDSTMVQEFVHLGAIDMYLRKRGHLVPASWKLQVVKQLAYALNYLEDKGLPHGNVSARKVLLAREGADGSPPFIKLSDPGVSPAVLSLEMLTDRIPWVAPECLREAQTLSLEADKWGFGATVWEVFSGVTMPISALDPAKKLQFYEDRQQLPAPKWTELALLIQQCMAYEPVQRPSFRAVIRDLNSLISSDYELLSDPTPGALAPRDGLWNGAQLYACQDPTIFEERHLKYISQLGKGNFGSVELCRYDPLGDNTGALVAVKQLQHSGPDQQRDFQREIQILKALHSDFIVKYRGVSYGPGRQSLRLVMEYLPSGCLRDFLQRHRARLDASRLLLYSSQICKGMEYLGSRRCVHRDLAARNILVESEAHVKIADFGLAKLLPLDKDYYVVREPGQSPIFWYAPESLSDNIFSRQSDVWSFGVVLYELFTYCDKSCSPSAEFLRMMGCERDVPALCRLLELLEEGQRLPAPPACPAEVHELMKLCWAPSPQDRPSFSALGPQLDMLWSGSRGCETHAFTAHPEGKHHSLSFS
Sequence of ITK (Q08881 whole entry): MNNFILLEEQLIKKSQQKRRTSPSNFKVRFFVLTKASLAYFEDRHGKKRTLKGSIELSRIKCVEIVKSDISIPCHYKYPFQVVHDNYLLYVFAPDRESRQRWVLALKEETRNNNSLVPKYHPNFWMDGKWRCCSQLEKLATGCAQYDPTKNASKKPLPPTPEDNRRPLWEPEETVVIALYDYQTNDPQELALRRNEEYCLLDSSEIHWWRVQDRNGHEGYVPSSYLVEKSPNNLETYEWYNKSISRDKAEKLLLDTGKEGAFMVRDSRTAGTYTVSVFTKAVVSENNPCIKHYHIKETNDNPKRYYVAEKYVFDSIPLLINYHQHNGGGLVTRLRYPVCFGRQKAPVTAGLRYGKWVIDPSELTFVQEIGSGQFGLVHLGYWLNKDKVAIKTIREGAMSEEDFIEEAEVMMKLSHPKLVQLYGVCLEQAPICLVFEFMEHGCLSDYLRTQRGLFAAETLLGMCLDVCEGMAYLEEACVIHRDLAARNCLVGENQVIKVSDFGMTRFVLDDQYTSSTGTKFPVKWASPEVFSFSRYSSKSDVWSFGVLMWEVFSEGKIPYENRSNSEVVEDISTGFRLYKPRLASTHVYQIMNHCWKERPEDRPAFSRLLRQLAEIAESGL

At Btk, `C#CC(=O)N1CCCC(n2nc(-c3ccc(Oc4ccccc4)cc3)c3c(N)ncnc32)C1` (centres unmarked) [Compound 8, 1-(3-(4-amino-3-(4-phenoxyphenyl)-1H-pyrazolo[3,4-d]pyrimidin-1-yl)piperidin-1-yl)prop-2-yn-1-one] yielded an IC50 of 0.72 nM.
`C=CC(=O)N1CC[C@@H](n2nc(-c3ccc(Oc4ccccc4)cc3)c3c(N)ncnc32)C1` [Compound 11, 1-((R)-3-(4-amino-3-(4-phenoxyphenyl)-1H-pyrazolo[3,4-d]pyrimidin-1-yl)pyrrolidin-1-yl)prop-2-en-1-one]: at Btk (setting [2]), the IC50 came to 1.6 nM.
Still for that read-out and setting: to `C=CC(=O)N1CC[C@H](n2nc(-c3ccc(Oc4ccccc4)cc3)c3c(N)ncnc32)C1` [Compound 12, 1-((S)-3-(4-amino-3-(4-phenoxyphenyl)-1H-pyrazolo[3,4-d]pyrimidin-1-yl)pyrrolidin-1-yl)prop-2-en-1-one] belongs 1.9 nM.
Consider `C/C=C/C(=O)N1CCCC(n2nc(-c3ccc(Oc4ccccc4)cc3)c3c(N)ncnc32)C1` (centres unmarked) [Compound 5, (E)-1-(3-(4-amino-3-(4-phenoxyphenyl)-1H-pyrazolo[3,4-d]pyrimidin-1-yl)piperidin-1-yl)but-2-en-1-one], for which the “fold less potent than 4” value on Btk (Btk potency relative to compound 4) was 28 fold. The IC50 at Btk (setting [2]) came to 20 nM.
As to `CN(C)C/C=C/C(=O)N1CCC[C@@H](n2nc(-c3ccc(Oc4ccccc4)cc3)c3c(N)ncnc32)C1` [Compound 15, (E)-1-(3-(4-amino-3-(4-phenoxyphenyl)-1H-pyrazolo[3,4-d]pyrimidin-1-yl)piperidin-1-yl)-4-(dimethylamino)but-2-en-1-one], the “growth of DHL-6 cells” value with DHL-6 cells was “inhibit growth”.
Turning to `C=CC(=O)N1CCC(n2nc(-c3ccc(Oc4ccccc4)cc3)c3c(N)ncnc32)CC1` [Compound 9, 1-(4-(4-amino-3-(4-phenoxyphenyl)-1H-pyrazolo[3,4-d]pyrimidin-1-yl)piperidin-1-yl)prop-2-en-1-one], the IC50 at Btk (setting [2]) came out at 3.6 nM.
`C=CC(=O)N[C@H]1CC[C@@H](n2nc(-c3ccc(Oc4ccccc4)cc3)c3c(N)ncnc32)CC1` [Compound 10, N-((1s,4s)-4-(4-amino-3-(4-phenoxyphenyl)-1H-pyrazolo[3,4-d]pyrimidin-1-yl)cyclohexyl)acrylamide]: the results for the IC50 on JAK3, at BLK and against ITK were 8280 nM, 0.17 nM and 910 nM, respectively. For the same molecule, the GI50 in the experiment with DHL-6 is 0.009 µM; in the experiment with DOHH2, 0.011 µM; in the experiment on DLCL2, 4.82 µM; in the experiment on Mino, 0.12 µM; in the experiment with Raji it was greater than 10 µM; in the experiment on CRL-8062 it was greater than 10 µM. The GI50 in the experiment with A549 is 3.13 µM; with NCI-H460, greater than 10 µM; in the experiment on BT-549 it was 2.79 µM; in the experiment on SK-BR3, 0.24 µM; with MDA-MB-361, greater than 10 µM; in the experiment on MDA-MB-468, greater than 10 µM. For the same molecule, the results for the GI50 with MDA-MB-231 and in the experiment on MDA-MB-453 were greater than 10 µM and 0.54 µM, respectively.
`C=CC(=O)N1CCCC(n2nc(-c3ccc(Oc4ccccc4)cc3)c3c(N)ncnc32)C1` (centres unmarked) [Compound 4, 1-(3-(4-amino-3-(4-phenoxyphenyl)-1H-pyrazolo[3,4-d]pyrimidin-1-yl)piperidin-1-yl)prop-2-en-1-one]: the GI50 in the experiment on DHL-6 is 0.75 µM; in the experiment with DOHH2, 0.77 µM; in the experiment with DLCL2 it was 1.3 µM; with Mino, 1.9 µM; in the experiment on Raji it was greater than 10 µM; with CRL-8062 it was greater than 10 µM. Besides, the GI50 is greater than 10 µM with A549; greater than 10 µM in the experiment on NCI-H460; greater than 10 µM in the experiment on BT-549; 0.44 µM in the experiment with SK-BR3; greater than 10 µM in the experiment with MDA-MB-361; greater than 10 µM in the experiment on MDA-MB-468. The GI50 with MDA-MB-231 is greater than 10 µM; with MDA-MB-453, less than 0.001 µM; in [1] (B-cell, 5 of seven lines with high basal pERK, read-out: GI50 of sensitive cell lines), less than 1300 nM. Also, the “sensitivity of cell line DOHH2” value in the experiment with DOHH2 is “sensitive”. For the same molecule, in the experiment on pERK in DOHH2 cells, the IC50 was less than 10 nM. Besides, the “response of cell lines with low pERK levels” value in experiment [1] (two cell lines with low pERK levels) is reported as “resistant”. In addition, in the experiment with Egr-1, the “time within which Egr-1 expression is reduced” value was no more than 1 h. Besides, in the experiment with Ramos, the “sensitivity of cell line Ramos” value is listed as “resistant”.
